# According to US20230295157A1, “3-(1H-IMIDAZOL-2-YL)-2,3,8,8A-TETRAHYDROINDOLIZIN-5(1H)-ONE DERIVATIVES USEFUL AS FACTOR XIA INHIBITORS” (JANSSEN PHARMACEUTICA NV, priority 2020, published 2023):
# Like-named read-outs stand apart in the source and are kept apart here.
# Experiments:
# human plasma kallikrein = human plasma kallikrein (Homo sapiens (Human), UniProt P03952); assay: Kallikrein inhibition assay (FLINT) utilizing a quenched AMC peptide substrate; format: biochemical; conditions: 30 min preincubation, read-out: Kallikrein Kin Inh IC50
# Sequence of human plasma kallikrein (P03952 391-638): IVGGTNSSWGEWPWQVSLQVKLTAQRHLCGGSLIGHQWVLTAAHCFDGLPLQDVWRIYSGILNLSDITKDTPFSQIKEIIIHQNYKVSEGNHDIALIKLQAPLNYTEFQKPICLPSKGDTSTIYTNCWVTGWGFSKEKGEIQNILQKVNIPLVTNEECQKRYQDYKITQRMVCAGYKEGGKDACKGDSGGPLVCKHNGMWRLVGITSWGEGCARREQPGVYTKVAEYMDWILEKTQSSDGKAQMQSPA
# Sequence of human plasma kallikrein (P03952 20-390 partner): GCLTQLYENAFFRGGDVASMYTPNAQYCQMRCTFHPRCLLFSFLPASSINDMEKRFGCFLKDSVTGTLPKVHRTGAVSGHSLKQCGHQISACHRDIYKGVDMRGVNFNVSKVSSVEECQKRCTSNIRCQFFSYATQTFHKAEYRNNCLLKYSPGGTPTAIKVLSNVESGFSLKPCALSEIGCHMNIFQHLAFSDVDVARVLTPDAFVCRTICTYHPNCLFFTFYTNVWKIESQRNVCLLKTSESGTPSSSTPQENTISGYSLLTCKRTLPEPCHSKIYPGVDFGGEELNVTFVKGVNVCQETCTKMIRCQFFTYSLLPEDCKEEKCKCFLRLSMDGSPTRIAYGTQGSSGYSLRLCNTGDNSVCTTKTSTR
# Summary of the method: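 Enzyme (2 nM final) pre-incubated 30 min at room temperature with compound (11-point, 3-fold, top 1 μM, 2% DMSO), then 50 μM Z-Gly-Pro-Arg-AMC added in Tris pH 7.5 buffer. Kinetic fluorescence 340/440 nm every 5 min over 30 min; IC50 from 4-parameter logistic fit.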
# Factor XIa = Factor XIa (Homo sapiens (Human), UniProt P03951); assay: Factor XIa inhibition assay (FLINT) utilizing a fluorophore-quencher pair peptide substrate; format: biochemical; conditions: 30 min preincubation, kinetic reads over 30 min, read-out: FXIa Kin Inh IC50
# Sequence of Factor XIa (P03951 388-625): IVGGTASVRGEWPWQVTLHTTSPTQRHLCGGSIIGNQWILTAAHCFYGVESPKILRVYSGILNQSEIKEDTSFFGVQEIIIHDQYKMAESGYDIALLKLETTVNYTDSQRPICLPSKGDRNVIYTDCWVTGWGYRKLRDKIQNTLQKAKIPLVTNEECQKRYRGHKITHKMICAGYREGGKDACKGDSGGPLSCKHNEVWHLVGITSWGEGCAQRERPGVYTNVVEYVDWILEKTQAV
# Sequence of Factor XIa (P03951 19-387 partner): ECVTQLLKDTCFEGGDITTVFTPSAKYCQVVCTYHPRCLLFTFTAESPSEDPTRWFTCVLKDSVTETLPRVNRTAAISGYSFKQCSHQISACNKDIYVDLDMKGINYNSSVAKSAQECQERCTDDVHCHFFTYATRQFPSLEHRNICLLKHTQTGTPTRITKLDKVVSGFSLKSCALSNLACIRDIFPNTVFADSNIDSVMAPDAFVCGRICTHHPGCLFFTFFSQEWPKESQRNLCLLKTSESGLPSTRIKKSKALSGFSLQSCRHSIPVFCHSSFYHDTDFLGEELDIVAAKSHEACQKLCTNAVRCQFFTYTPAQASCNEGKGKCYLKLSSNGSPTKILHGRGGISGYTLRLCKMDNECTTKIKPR
# Summary of the method: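 FXIa ([…]) preincubated 30 min with compound (11-point 3-fold dilution, top 100 nM, 2% DMSO), then 15 μM quenched FXI Arg146-based peptide added; Tris pH 7.5, CaCl2, BSA, CHAPS. Fluorescence 485/520 nm read kinetically every 5 min over 30 min at RT; IC50 by 4-parameter fit.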
# [1] = kinetic reads over 30 min, Z-Gly-Pro-Arg-AMC substrate 50 μM
# [2] = 5Fam-[…]-K5Tamra substrate 15 μM
# [3] = 5Fam-KLTRAETV-K5Tamra substrate 15 μM
SMILES,IC50 (human plasma kallikrein; [1]),IC50 (Factor XIa; [2]),IC50 (Factor XIa; [3]),"IC50 (human plasma kallikrein; μM, kinetic reads)"
"COC(=O)Nc1ccc(-c2cnc([C@@H]3CC[C@H]4CC(c5c(OC(F)F)ccc(Cl)c5F)=CC(=O)N43)[nH]2)cc1 (relative stereo) [Example 320, Methyl (4-(2-((3S,8aS)-7-(3-Chloro-6-(difluoromethoxy)-2-fluorophenyl)-5-oxo-1,2,3,5,8,8a-hexahydroindolizin-3-yl)-1H-imidazol-5-yl)phenyl)carbamate]",0.0038 µM,23.5 nM,–,–
"O=C1C=C(c2c(-n3cnnn3)ccc(Cl)c2F)C[C@H]2CC[C@@H](c3ncc(-c4c[nH]nc4C(F)(F)F)[nH]3)N12 (single isomer, unassigned) [Example 240, (3*S,8a*R)-7-(3-Chloro-2-fluoro-6-(1H-tetrazol-1-yl)phenyl)-3-(5-(3-(trifluoromethyl)-1H-pyrazol-4-yl)-1H-imidazol-2-yl)-2,3,8,8a-tetrahydroindolizin-5(1H)-one]",0.0129 µM,–,0.6 nM,–
"CNC(=O)c1ccccc1-c1cnc([C@@H]2CCC3CC(c4c(-n5cnnn5)ccc(Cl)c4F)=CC(=O)N32)[nH]1 (stereo partly drawn) [Example 287, 2-(2-((3S)-7-(3-chloro-2-fluoro-6-(1H-tetrazol-1-yl)phenyl)-5-oxo-1,2,3,5,8,8a-hexahydroindolizin-3-yl)-1H-imidazol-5-yl)-N-methylbenzamide]",0.38 µM,–,~30.4 nM,–
"O=C1C=C(c2c(-n3cnnn3)ccc(Cl)c2F)C[C@H]2CC[C@@H](c3ncc(-c4ccc(CO)nc4Cl)[nH]3)N12 [Example 236, (3S,8aR)-7-(3-Chloro-2-fluoro-6-(1H-tetrazol-1-yl)phenyl)-3-(5-(2-chloro-6-(hydroxymethyl)pyridin-3-yl)-1H-imidazol-2-yl)-2,3,8,8a-tetrahydroindolizin-5(1H)-one]",0.0216 µM,–,5.3 nM,–
"O=C1C=C(c2cc(Cl)ccc2-n2cnnn2)C[C@H]2CC[C@@H](c3nc(F)c(-c4ccnc(CO)c4F)[nH]3)N12 [Example 80, (3S,8aR)-7-[5-chloro-2-(tetrazol-1-yl)phenyl]-3-[4-fluoro-5-[3-fluoro-2-(hydroxymethyl)-4-pyridyl]-1H-imidazol-2-yl]-2,3,8,8a-tetrahydro-1H-indolizin-5-one]",0.0112 µM,–,1.3 nM,–
"O=C1C=C(c2c(-n3cnnn3)ccc(Cl)c2F)C[C@H]2CC[C@@H](c3ncc(-c4ccnc([C@@H](O)C(F)(F)F)c4F)[nH]3)N12 (single isomer, unassigned) [Example 171, (3*S,8a*R)-7-(3-chloro-2-fluoro-6-(1H-tetrazol-1-yl)phenyl)-3-(5-(3-fluoro-2-((*R)-2,2,2-trifluoro-1-hydroxyethyl)pyridin-4-yl)-1H-imidazol-2-yl)-2,3,8,8a-tetrahydroindolizin-5(1H)-one]",0.0317 µM,–,4.1 nM,–
"Cn1cc(-c2ccccc2NC(=O)C2CC2)nc1[C@@H]1CC[C@@H]2CC(c3c(-n4cnnn4)ccc(Cl)c3F)=CC(=O)N21 (single isomer, unassigned) [Example 298, N-(2-(2-((3S,8aR*)-7-(3-Chloro-2-fluoro-6-(1H-tetrazol-1-yl)phenyl)-5-oxo-1,2,3,5,8,8a-hexahydroindolizin-3-yl)-1-methyl-1H-imidazol-4-yl)phenyl)cyclopropanecarboxamide]",–,–,> 100 nM,1.05 µM
"O=C(O)c1nccc(-c2cnc([C@@H]3CC[C@@H]4CC(c5c(-n6cnnn6)ccc(Cl)c5F)=CC(=O)N43)[nH]2)c1F [Example 182, 4-(2-((3S,8aR)-7-(3-chloro-2-fluoro-6-(1H-tetrazol-1-yl)phenyl)-5-oxo-1,2,3,5,8,8a-hexahydroindolizin-3-yl)-1H-imidazol-5-yl)-3-fluoropicolinic acid]",0.0141 µM,–,0.4 nM,–
"CC(=O)NCc1nccc(-c2cnc([C@@H]3CC[C@@H]4CC(c5c(-n6cnnn6)ccc(Cl)c5F)=CC(=O)N43)[nH]2)c1F [Example 13, N-[[4 [2-[(3S,8aR)-7-[3-Chloro-2-fluoro-6-(tetrazol-1-yl)phenyl]-5-oxo-2,3,8,8a-tetrahydro-1H-indolizin-3-yl]-1H-imidazol-5-yl]-3-fluoro-2-pyridyl]methyl]acetamide]",0.0686 µM,–,4.2 nM,–
"C[C@H](Oc1nccc(-c2cnc([C@@H]3CC[C@@H]4CC(c5c(-n6cnnn6)ccc(Cl)c5F)=CC(=O)N43)[nH]2)c1F)c1nnco1 (relative stereo) [Example 128, (3S*,8aR*)-3-(5-(2-((S*)-1-(1,3,4-oxadiazol-2-yl)ethoxy)-3-fluoropyridin-4-yl)-1H-imidazol-2-yl)-7-(3-chloro-2-fluoro-6-(1H-tetrazol-1-yl)phenyl)-2,3,8,8a-tetrahydroindolizin-5(1H)-one]",0.0128 µM,6.1 nM,–,–
"CNc1ccc(-c2cnc([C@@H]3CC[C@@H]4CC(c5c(-n6cnnn6)ccc(Cl)c5F)=CC(=O)N43)[nH]2)c(F)n1 (relative stereo) [Example 282, (3S,8aR)-7-(3-Chloro-2-fluoro-6-(1H-tetrazol-1-yl)phenyl)-3-(5-(2-fluoro-6-(methylamino)pyridin-3-yl)-1H-imidazol-2-yl)-2,3,8,8a-tetrahydroindolizin-5(1H)-one]",0.009 µM,1.2 nM,–,–
"O=C1CCc2cc(-c3cnc([C@@H]4CC[C@@H]5CC(c6cc(Cl)ccc6-n6cc(C(F)(F)F)nn6)=CC(=O)N54)[nH]3)ccc2N1 [Example 97, 6-(2-((3S,8aR)-7-(5-chloro-2-(4-(trifluoromethyl)-1H-1,2,3-triazol-1-yl)phenyl)-5-oxo-1,2,3,5,8,8a-hexahydroindolizin-3-yl)-1H-imidazol-5-yl)-3,4-dihydroquinolin-2(1H)-one]",0.0046 µM,–,1.6 nM,–
"O=C1C=C(c2c(-n3cnnn3)ccc(Cl)c2F)CC2CC[C@@H](c3nc(-c4ccnc(OC(F)F)c4)c[nH]3)N12 (stereo partly drawn) [Example 10, (S)-7-[3-Chloro-2-fluoro-6-(tetrazol-1-yl)phenyl]-3-[4-[2-(difluoromethoxy)-4-pyridyl]-1H-imidazol-2-yl]-2,3,8,8a-tetrahydro-1H-indolizin-5-one]",0.0268 µM,–,36.1 nM,–
"O=C1C=C(c2c(-n3cnnn3)ccc(Cl)c2F)C[C@H]2CC[C@@H](c3nc(-c4ccnc5[nH]ncc45)c[nH]3)N12 [Example 38, (3S,8aR)-3-(4-(1H-pyrazolo[3,4-b]pyridin-4-yl)-1H-imidazol-2-yl)-7-(3-chloro-2-fluoro-6-(1H-tetrazol-1-yl)phenyl)-2,3,8,8a-tetrahydroindolizin-5(1H)-one]",0.0026 µM,–,2.1 nM,–
"O=C1Nc2ccc(-c3cnc([C@@H]4CC[C@@H]5CC(c6c(-n7cnnn7)ccc(Cl)c6F)=CC(=O)N54)[nH]3)cc2CO1 (relative stereo) [Example 277, 6-(2-((3S,8aR)-7-(3-Chloro-2-fluoro-6-(1H-tetrazol-1-yl)phenyl)-5-oxo-1,2,3,5,8,8a-hexahydroindolizin-3-yl)-1H-imidazol-5-yl)-1,4-dihydro-2H-benzo[d][1,3]oxazin-2-one]",0.0011 µM,0.2 nM,–,–
"O=C1C[C@H](c2c(-n3cnnn3)ccc(Cl)c2F)C[C@H]2CC[C@@H](c3ncc(-c4ccnc(CO)c4F)[nH]3)N12 [Example 378, (3S,7R,8aR)-7-(3-chloro-2-fluoro-6-(1H-tetrazol-1-yl)phenyl)-3-(5-(3-fluoro-2-(hydroxymethyl)pyridin-4-yl)-1H-imidazol-2-yl)hexahydroindolizin-5(1H)-one]",0.115 µM,–,14.5 nM,–
"Nc1ccc(-c2cnc([C@@H]3CC[C@@H]4CC(c5cc(Cl)ccc5-n5cnnn5)=CC(=O)N43)[nH]2)c(F)n1 (single isomer, unassigned) [Example 122, (3*S,8aR)-3-(5-(6-amino-2-fluoropyridin-3-yl)-1H-imidazol-2-yl)-7-(5-chloro-2-(1H-tetrazol-1-yl)phenyl-3-d)-2,3,8,8a-tetrahydroindolizin-5(1H)-one]",0.0531 µM,–,4 nM,–
"O=C1C=C(c2c(-n3cnnn3)ccc(Cl)c2F)C[C@H]2CC[C@@H](c3ncc(-c4cc(F)ncc4Cl)[nH]3)N12 [Example 371, (3S,8aR)-7-(3-chloro-2-fluoro-6-(1H-tetrazol-1-yl)phenyl)-3-(5-(5-chloro-2-fluoropyridin-4-yl)-1H-imidazol-2-yl)-2,3,8,8a-tetrahydroindolizin-5(1H)-one]",0.0565 µM,–,36.3 nM,–
"Nc1ccc(-c2cnc([C@H]3CC[C@H]4CC(c5c(-n6cnnn6)ccc(Cl)c5F)=CC(=O)N43)[nH]2)c(F)n1 [Example 357, (3R,8aS)-3-(5-(6-Amino-2-fluoropyridin-3-yl)-1H-imidazol-2-yl)-7-(3-chloro-2-fluoro-6-(1H-tetrazol-1-yl)phenyl)-2,3,8,8a-tetrahydroindolizin-5(1H)-one]",–,–,64.1 nM,2.3 µM
"C[C@H](CO)Oc1nccc(-c2cnc([C@@H]3CC[C@@H]4CC(c5c(-n6cnnn6)ccc(Cl)c5F)=CC(=O)N43)[nH]2)c1F (single isomer, unassigned) [Example 168, (3S,8a*R)-7-(3-chloro-2-fluoro-6-(1H-tetrazol-1-yl)phenyl)-3-(5-(3-fluoro-2-(((R)-1-hydroxypropan-2-yl)oxy)pyridin-4-yl)-1H-imidazol-2-yl)-2,3,8,8a-tetrahydroindolizin-5(1H)-one]",0.0049 µM,–,0.8 nM,–
"O=C1C=C(c2c(-n3cnnn3)ccc(Cl)c2F)C[C@@H]2CC[C@@H](c3ncc(-c4ccnc([C@H](O)C(F)(F)F)c4F)[nH]3)N12 (single isomer, unassigned) [Example 170]",0.0318 µM,–,17.9 nM,–
